{
  "source": "paper PMC9907135",
  "about": "(Proceedings of the National Academy of Sciences of the …, 2022)",
  "key": {"[1]": {"system": "Expi293 cells", "details": "percentage of Helicons in cells after treatment and wash; Expi293 cells 1x10^6 cells/mL, 22 hours, 37°C; washed twice with DPBS; MS quantitation, single-point calibration; n=2, mean ± SD"}, "[2]": {"system": "Expi293 cells", "details": "luminescence at Tfinal (22 hours) divided by Tinitial, measure of ATP levels, reflective of cell health"}},
  "note": "Bridge positions count the residues as written; N and C are the ends. Square brackets hold non-standard residues; d marks the D form. Peptide text beside a SMILES is read from it. R8 = C=CCCCCCC[C@@](C)(N)C(=O)O; S5 = C=CCCC[C@](C)(N)C(=O)O; Nle = CCCC[C@H](N)C(=O)O",
  "data": [
    {"compound": "CC(=O)N[C@@H](CC(C)C)C(=O)N[C@H](C(=O)N[C@@H](Cc1ccccc1)C(=O)N[C@]1(C)CCCCCCC=CCCC[C@@](C)(C(=O)N[C@@H](CO)C(=O)N[C@@H](C)C(=O)N[C@@H](C)C(N)=O)NC(=O)[C@H](CC2CCC2)NC(=O)[C@H](CCC(N)=O)NC(=O)[C@H](C)NC(=O)[C@H](Cc2c[nH]c3ccccc23)NC(=O)[C@H](Cc2ccc(O)cc2)NC(=O)[C@H](CCC(=O)O)NC1=O)[C@@H](C)O", "note": "[FP01413, reference compound]", "values": [
      {"measurement": "Helicon in cells ± SD (%)", "setting": "[1]", "value": "3.7 ± 0.4", "unit": "%"},
      {"measurement": "CellTiter-Glo fold change ± SD", "setting": "[2]", "value": "1.2 ± 0.07"}
    ]},
    {"compound": "CCCC[C@H](NC(=O)[C@@H](NC(C)=O)C(C)C)C(=O)N[C@@H](CCC(=O)O)C(=O)N[C@]1(C)CCCCCCC=CCCC[C@@](C)(C(=O)N[C@@H](Cc2c[nH]cn2)C(=O)N[C@@H](Cc2ccc(O)cc2)C(=O)N[C@H](C(N)=O)C(C)C)NC(=O)[C@H]([C@@H](C)CC)NC(=O)[C@H](Cc2ccccc2)NC(=O)[C@H](C)NC(=O)[C@H](C)NC(=O)[C@H](CCC(=O)O)NC(=O)[C@H](Cc2ccc(O)cc2)NC1=O", "note": "[FP07855] (Ac-V[Nle]E[R8]YEAAFI[S5]HYV-NH2; staple 4-11)", "values": [
      {"measurement": "Helicon in cells ± SD (%)", "setting": "[1]", "value": "16.4 ± 0.6", "unit": "%"},
      {"measurement": "CellTiter-Glo fold change ± SD", "setting": "[2]", "value": "1.2 ± 0.10"}
    ]},
    {"compound": "CCCC[C@H](NC(=O)[C@@H](NC(C)=O)C(C)C)C(=O)N[C@@H](CCC(=O)O)C(=O)N[C@]1(C)CCCCCCC=CCCC[C@@](C)(C(=O)N[C@@H](Cc2c[nH]cn2)C(=O)N[C@@H](Cc2ccc(O)cc2)C(=O)N[C@H](C(N)=O)C(C)C)NC(=O)[C@H]([C@@H](C)CC)NC(=O)[C@H](Cc2ccccc2)NC(=O)[C@H](C)NC(=O)[C@H](C)NC(=O)[C@H](CCC(=O)O)NC(=O)[C@H](Cc2ccc(O)cc2)NC1=O", "note": "[FP07856] (Ac-V[Nle]E[R8]YEAAFI[S5]HYV-NH2; staple 4-11)", "values": [
      {"measurement": "Helicon in cells ± SD (%)", "setting": "[1]", "value": "15.5 ± 0.9", "unit": "%"},
      {"measurement": "CellTiter-Glo fold change ± SD", "setting": "[2]", "value": "1.3 ± 0.12"}
    ]},
    {"compound": "CC[C@H](C)[C@H](NC(C)=O)C(=O)N[C@@H](CC(C)C)C(=O)N[C@@H](CCC(N)=O)C(=O)N[C@]1(C)CCCCCCC=CCCC[C@@](C)(C(=O)N[C@@H](Cc2c[nH]cn2)C(=O)N[C@@H](Cc2ccc(O)cc2)C(=O)N[C@@H](CCC(N)=O)C(N)=O)NC(=O)[C@H](CO)NC(=O)[C@H](Cc2ccccc2)NC(=O)[C@H](C)NC(=O)[C@H](C)NC(=O)[C@H](CCC(=O)O)NC(=O)[C@H](Cc2ccc(O)cc2)NC1=O", "note": "[FP07859] (Ac-ILQ[R8]YEAAFS[S5]HYQ-NH2; staple 4-11)", "values": [
      {"measurement": "Helicon in cells ± SD (%)", "setting": "[1]", "value": "0.1 ± 0.0", "unit": "%"},
      {"measurement": "CellTiter-Glo fold change ± SD", "setting": "[2]", "value": "1.2 ± 0.02"}
    ]},
    {"compound": "CC[C@H](C)[C@H](NC(C)=O)C(=O)N[C@@H](CC(C)C)C(=O)N[C@@H](CCC(N)=O)C(=O)N[C@]1(C)CCCCCCC=CCCC[C@@](C)(C(=O)N[C@@H](Cc2c[nH]cn2)C(=O)N[C@@H](Cc2ccc(O)cc2)C(=O)N[C@@H](CCC(N)=O)C(N)=O)NC(=O)[C@H](CO)NC(=O)[C@H](Cc2ccccc2)NC(=O)[C@H](C)NC(=O)[C@H](C)NC(=O)[C@H](CCC(=O)O)NC(=O)[C@H](Cc2ccc(O)cc2)NC1=O", "note": "[FP07860] (Ac-ILQ[R8]YEAAFS[S5]HYQ-NH2; staple 4-11)", "values": [
      {"measurement": "Helicon in cells ± SD (%)", "setting": "[1]", "value": "0.3 ± 0.0", "unit": "%"},
      {"measurement": "CellTiter-Glo fold change ± SD", "setting": "[2]", "value": "1.2 ± 0.03"}
    ]},
    {"compound": "CCCC[C@H](NC(=O)[C@@H](NC(C)=O)C(C)C)C(=O)N[C@@H](CCC(N)=O)C(=O)N[C@]1(C)CCCCCCC=CCCC[C@@](C)(C(=O)N[C@@H](Cc2c[nH]cn2)C(=O)N[C@@H](Cc2ccc(O)cc2)C(=O)N[C@H](C(N)=O)C(C)C)NC(=O)[C@H]([C@@H](C)CC)NC(=O)[C@H](Cc2ccccc2)NC(=O)[C@H](C)NC(=O)[C@H](C)NC(=O)[C@H](CCC(=O)O)NC(=O)[C@H](Cc2ccc(O)cc2)NC1=O", "note": "[FP07863] (Ac-V[Nle]Q[R8]YEAAFI[S5]HYV-NH2; staple 4-11)", "values": [
      {"measurement": "Helicon in cells ± SD (%)", "setting": "[1]", "value": "23.5 ± 6.5", "unit": "%"},
      {"measurement": "CellTiter-Glo fold change ± SD", "setting": "[2]", "value": "1.2 ± 0.02"}
    ]},
    {"compound": "CCCC[C@H](NC(=O)[C@@H](NC(C)=O)C(C)C)C(=O)N[C@@H](CCC(N)=O)C(=O)N[C@]1(C)CCCCCCC=CCCC[C@@](C)(C(=O)N[C@@H](Cc2c[nH]cn2)C(=O)N[C@@H](Cc2ccc(O)cc2)C(=O)N[C@H](C(N)=O)C(C)C)NC(=O)[C@H]([C@@H](C)CC)NC(=O)[C@H](Cc2ccccc2)NC(=O)[C@H](C)NC(=O)[C@H](C)NC(=O)[C@H](CCC(=O)O)NC(=O)[C@H](Cc2ccc(O)cc2)NC1=O", "note": "[FP07864] (Ac-V[Nle]Q[R8]YEAAFI[S5]HYV-NH2; staple 4-11)", "values": [
      {"measurement": "Helicon in cells ± SD (%)", "setting": "[1]", "value": "18.5 ± 11.4", "unit": "%"},
      {"measurement": "CellTiter-Glo fold change ± SD", "setting": "[2]", "value": "1.1 ± 0.05"}
    ]},
    {"compound": "CCCC[C@H](NC(=O)[C@@H](NC(C)=O)C(C)C)C(=O)N[C@@H](CCC(=O)O)C(=O)N[C@]1(C)CCCCCCC=CCCC[C@@](C)(C(=O)N[C@@H](Cc2c[nH]cn2)C(=O)N[C@@H](Cc2ccc(O)cc2)C(=O)N[C@H](C(N)=O)C(C)C)NC(=O)[C@H]([C@@H](C)CC)NC(=O)[C@H](Cc2ccccc2)NC(=O)[C@H](C)NC(=O)[C@H](C)NC(=O)[C@H](CCC(N)=O)NC(=O)[C@H](Cc2ccc(O)cc2)NC1=O", "note": "[FP07867] (Ac-V[Nle]E[R8]YQAAFI[S5]HYV-NH2; staple 4-11)", "values": [
      {"measurement": "Helicon in cells ± SD (%)", "setting": "[1]", "value": "8.6 ± 0.4", "unit": "%"},
      {"measurement": "CellTiter-Glo fold change ± SD", "setting": "[2]", "value": "1.2 ± 0.03"}
    ]},
    {"compound": "CCCC[C@H](NC(=O)[C@@H](NC(C)=O)C(C)C)C(=O)N[C@@H](CCC(=O)O)C(=O)N[C@]1(C)CCCCCCC=CCCC[C@@](C)(C(=O)N[C@@H](Cc2c[nH]cn2)C(=O)N[C@@H](Cc2ccc(O)cc2)C(=O)N[C@H](C(N)=O)C(C)C)NC(=O)[C@H]([C@@H](C)CC)NC(=O)[C@H](Cc2ccccc2)NC(=O)[C@H](C)NC(=O)[C@H](C)NC(=O)[C@H](CCC(N)=O)NC(=O)[C@H](Cc2ccc(O)cc2)NC1=O", "note": "[FP07868] (Ac-V[Nle]E[R8]YQAAFI[S5]HYV-NH2; staple 4-11)", "values": [
      {"measurement": "Helicon in cells ± SD (%)", "setting": "[1]", "value": "10.3 ± 1.4", "unit": "%"},
      {"measurement": "CellTiter-Glo fold change ± SD", "setting": "[2]", "value": "1.2 ± 0.10"}
    ]},
    {"compound": "CCCC[C@H](NC(=O)[C@@H](NC(C)=O)C(C)C)C(=O)N[C@@H](CCC(N)=O)C(=O)N[C@]1(C)CCCCCCC=CCCC[C@@](C)(C(=O)N[C@@H](Cc2c[nH]cn2)C(=O)N[C@@H](Cc2ccc(O)cc2)C(=O)N[C@H](C(N)=O)C(C)C)NC(=O)[C@H]([C@@H](C)CC)NC(=O)[C@H](Cc2ccccc2)NC(=O)[C@H](C)NC(=O)[C@H](C)NC(=O)[C@H](CCC(N)=O)NC(=O)[C@H](Cc2ccc(O)cc2)NC1=O", "note": "[FP07871] (Ac-V[Nle]Q[R8]YQAAFI[S5]HYV-NH2; staple 4-11)", "values": [
      {"measurement": "Helicon in cells ± SD (%)", "setting": "[1]", "value": "7.0 ± 0.3", "unit": "%"},
      {"measurement": "CellTiter-Glo fold change ± SD", "setting": "[2]", "value": "1.2 ± 0.03"}
    ]},
    {"compound": "CCCC[C@H](NC(=O)[C@@H](NC(C)=O)C(C)C)C(=O)N[C@@H](CCC(N)=O)C(=O)N[C@]1(C)CCCCCCC=CCCC[C@@](C)(C(=O)N[C@@H](Cc2c[nH]cn2)C(=O)N[C@@H](Cc2ccc(O)cc2)C(=O)N[C@H](C(N)=O)C(C)C)NC(=O)[C@H]([C@@H](C)CC)NC(=O)[C@H](Cc2ccccc2)NC(=O)[C@H](C)NC(=O)[C@H](C)NC(=O)[C@H](CCC(N)=O)NC(=O)[C@H](Cc2ccc(O)cc2)NC1=O", "note": "[FP07872] (Ac-V[Nle]Q[R8]YQAAFI[S5]HYV-NH2; staple 4-11)", "values": [
      {"measurement": "Helicon in cells ± SD (%)", "setting": "[1]", "value": "11.7 ± 1.6", "unit": "%"},
      {"measurement": "CellTiter-Glo fold change ± SD", "setting": "[2]", "value": "1.1 ± 0.02"}
    ]},
    {"compound": "CC[C@H](C)[C@H](NC(=O)[C@H](Cc1ccc(O)cc1)NC(=O)[C@H](CCC(N)=O)NC(=O)[C@]1(C)CCCC=CCCCCCC[C@@](C)(NC(=O)[C@H](Cc2c[nH]cn2)NC(=O)[C@@H](NC(=O)[C@@H](NC(C)=O)[C@@H](C)CC)[C@@H](C)CC)C(=O)N[C@@H](Cc2ccc(O)cc2)C(=O)N[C@@H](CCC(=O)O)C(=O)N[C@@H](C)C(=O)N[C@@H](C)C(=O)N[C@@H](Cc2ccccc2)C(=O)N[C@@H](Cc2ccccc2)C(=O)N1)C(N)=O", "note": "[FP08011] (Ac-IIH[R8]YEAAFF[S5]QYI-NH2; staple 4-11)", "values": [
      {"measurement": "Helicon in cells ± SD (%)", "setting": "[1]", "value": "6.5 ± 0.5", "unit": "%"},
      {"measurement": "CellTiter-Glo fold change ± SD", "setting": "[2]", "value": "1.2 ± 0.01"}
    ]}
  ]
}
